Tested on: 885512-296-R-J2-PDC complex spheroid growth, % test/control
Test: Anticancer human tumor 885512-296-R-J2-PDC patient-derived breast carcinoma cell line growth inhibition [Asc]
Details: for IC50: curve of first compound; for viability, T/C: stronger effect = lower value
In short: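 Complex solid-tumor spheroids incorporating human endothelial and mesenchymal stem cells received single agents or combinations over half-log dilution ranges anchored to clinical Cmax.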

[1] = second compound 0.01 µM, first compound 0.00316 µM
[2] = second compound 0.01 µM, first compound 0.01 µM
[3] = second compound 0.01 µM, first compound 0.0316 µM
[4] = second compound 0.01 µM, first compound 0.1 µM
[5] = second compound 0.01 µM, first compound 0.316 µM
[6] = second compound 0.01 µM, first compound 1 µM
[7] = second compound 0.0316 µM, first compound 0.00316 µM
[8] = second compound 0.0316 µM, first compound 0.01 µM
[9] = second compound 0.0316 µM, first compound 0.0316 µM
[10] = second compound 0.0316 µM, first compound 0.1 µM
[11] = second compound 0.0316 µM, first compound 0.316 µM
[12] = second compound 0.0316 µM, first compound 1 µM
[13] = second compound 0.1 µM, first compound 0.00316 µM
[14] = second compound 0.1 µM, first compound 0.01 µM
[15] = second compound 0.1 µM, first compound 0.0316 µM
[16] = second compound 0.1 µM, first compound 0.1 µM
[17] = second compound 0.1 µM, first compound 0.316 µM
[18] = second compound 0.1 µM, first compound 1 µM
[19] = second compound 0.316 µM, first compound 0.00316 µM
[20] = second compound 0.316 µM, first compound 0.01 µM
[21] = second compound 0.316 µM, first compound 0.0316 µM
[22] = second compound 0.316 µM, first compound 0.1 µM
[23] = second compound 0.316 µM, first compound 0.316 µM
[24] = second compound 0.316 µM, first compound 1 µM
[25] = second compound 1 µM, first compound 0.00316 µM
[26] = second compound 1 µM, first compound 0.01 µM
[27] = second compound 1 µM, first compound 0.0316 µM
[28] = second compound 1 µM, first compound 0.1 µM
[29] = second compound 1 µM, first compound 0.316 µM
[30] = second compound 1 µM, first compound 1 µM
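Note: spheroids exposed to compounds for seven days.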
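Throughout, for viability, T/C: 100% = DMSO vehicle control wells.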

In the case of CCN1CCN(Cc2ccc(Nc3ncc(F)c(-c4cc(F)c5nc(C)n(C(C)C)c5c4)n3)nc2)CC1 + CNC(C)C(=O)NC1CN(S(=O)(=O)c2cccc(S(=O)(=O)N3CCC4CCC(C(=O)NC(c5ccccc5)c5ccccc5)N4C(=O)C(NC(=O)C(C)NC)C3)c2)CCC2CCC(C(=O)NC(c3ccccc3)c3ccccc3)N2C1=O, the IC50 (second compound 0.01 µM) is reported as 207 nM, the IC50 (second compound 0.0316 µM) is reported as > 1000 nM and the IC50 (second compound 0.1 µM) is reported as 742 nM. For the same compound, the IC50 (second compound 0.316 µM) was > 1000 nM, the IC50 (second compound 1 µM) was > 1000 nM and the viability, T/C [1] was 79.9%. For the same compound, the viability, T/C [2] was 104%, the viability, T/C [3] was 82.6% and the viability, T/C [4] was 56.7%. The viability, T/C [5] was 49.2%, the viability, T/C [6] was 26% and the viability, T/C [7] was 102%. For the same compound, the viability, T/C [8] was 106%, the viability, T/C [9] was 104% and the viability, T/C [10] was 82.6%. The viability, T/C [11] was 71.6%, the viability, T/C [12] was 49.9% and the viability, T/C [13] was 115%. For the same compound, the viability, T/C [14] was 107%, the viability, T/C [15] was 116% and the viability, T/C [16] was 91.4%. The viability, T/C [17] was 71.3%, the viability, T/C [18] was 42.7% and the viability, T/C [19] was 110%. The viability, T/C [20] was 112%, the viability, T/C [21] was 103% and the viability, T/C [22] was 90.8%. It also gave a viability, T/C [23] of 64.6%, a viability, T/C [24] of 50.3% and a viability, T/C [25] of 112%. It also gave a viability, T/C [26] of 112%, a viability, T/C [27] of 111% and a viability, T/C [28] of 87.5%. The viability, T/C [29] was 87.6% and the viability, T/C [30] was 68.3%.

COc1c(OCCCN2CCOCC2)ccc2c3n(c(=NC(=O)c4cnc(N)nc4)nc12)CCN3 + CNC(C)C(=O)NC1CN(S(=O)(=O)c2cccc(S(=O)(=O)N3CCC4CCC(C(=O)NC(c5ccccc5)c5ccccc5)N4C(=O)C(NC(=O)C(C)NC)C3)c2)CCC2CCC(C(=O)NC(c3ccccc3)c3ccccc3)N2C1=O showed an IC50 (second compound 0.01 µM) of 358 nM, an IC50 (second compound 0.0316 µM) of 394 nM and an IC50 (second compound 0.1 µM) of 387 nM. For the same compound, the IC50 (second compound 0.316 µM) was 410 nM, the IC50 (second compound 1 µM) was 343 nM and the viability, T/C [1] was 85.2%. It also gave a viability, T/C [2] of 86.4%, a viability, T/C [3] of 79.6% and a viability, T/C [4] of 88.2%. It also gave a viability, T/C [5] of 55.1%, a viability, T/C [6] of 7.8% and a viability, T/C [7] of 98.4%. For the same compound, the viability, T/C [8] was 92.1%, the viability, T/C [9] was 89.3% and the viability, T/C [10] was 85.3%. It also gave a viability, T/C [11] of 59.3%, a viability, T/C [12] of 8.15% and a viability, T/C [13] of 104%. For the same compound, the viability, T/C [14] was 98.6%, the viability, T/C [15] was 86.3% and the viability, T/C [16] was 81.8%. The viability, T/C [17] was 61.5%, the viability, T/C [18] was 8.94% and the viability, T/C [19] was 89.5%. For the same compound, the viability, T/C [20] was 93.2%, the viability, T/C [21] was 97.4% and the viability, T/C [22] was 83.6%. The viability, T/C [23] was 62.6%, the viability, T/C [24] was 7.92% and the viability, T/C [25] was 102%. For the same compound, the viability, T/C [26] was 105%, the viability, T/C [27] was 99.8% and the viability, T/C [28] was 79%. For the same compound, the viability, T/C [29] was 54.5% and the viability, T/C [30] was 8.06%.

In the case of NC(=O)C(=Cn1cnc(-c2cc(C(F)(F)F)cc(C(F)(F)F)c2)n1)c1cncnc1 + CNC(C)C(=O)NC1CN(S(=O)(=O)c2cccc(S(=O)(=O)N3CCC4CCC(C(=O)NC(c5ccccc5)c5ccccc5)N4C(=O)C(NC(=O)C(C)NC)C3)c2)CCC2CCC(C(=O)NC(c3ccccc3)c3ccccc3)N2C1=O, the IC50 (second compound 0.01 µM) is reported as 48.8 nM, the IC50 (second compound 0.0316 µM) is reported as 48.7 nM and the IC50 (second compound 0.1 µM) is reported as 49 nM. For the same compound, the IC50 (second compound 0.316 µM) was 49.9 nM, the IC50 (second compound 1 µM) was 48.9 nM and the viability, T/C (second compound 0.01 µM, first compound 0.000949 µM) was 96.4%. It also gave a viability, T/C (second compound 0.01 µM, first compound 0.003 µM) of 95.6%, a viability, T/C (second compound 0.01 µM, first compound 0.00949 µM) of 92.8% and a viability, T/C (second compound 0.01 µM, first compound 0.03 µM) of 80.9%. It also gave a viability, T/C (second compound 0.01 µM, first compound 0.0949 µM) of 7.83%, a viability, T/C (second compound 0.01 µM, first compound 0.3 µM) of 1.03% and a viability, T/C (second compound 0.0316 µM, first compound 0.000949 µM) of 96.1%. For the same compound, the viability, T/C (second compound 0.0316 µM, first compound 0.003 µM) was 99%, the viability, T/C (second compound 0.0316 µM, first compound 0.00949 µM) was 102% and the viability, T/C (second compound 0.0316 µM, first compound 0.03 µM) was 80.4%. The viability, T/C (second compound 0.0316 µM, first compound 0.0949 µM) was 8.3%, the viability, T/C (second compound 0.0316 µM, first compound 0.3 µM) was 0.82% and the viability, T/C (second compound 0.1 µM, first compound 0.000949 µM) was 102%. For the same compound, the viability, T/C (second compound 0.1 µM, first compound 0.003 µM) was 103%, the viability, T/C (second compound 0.1 µM, first compound 0.00949 µM) was 110% and the viability, T/C (second compound 0.1 µM, first compound 0.03 µM) was 81.8%. The viability, T/C (second compound 0.1 µM, first compound 0.0949 µM) was 7.31%, the viability, T/C (second compound 0.1 µM, first compound 0.3 µM) was 1.06% and the viability, T/C (second compound 0.316 µM, first compound 0.000949 µM) was 106%. For the same compound, the viability, T/C (second compound 0.316 µM, first compound 0.003 µM) was 110%, the viability, T/C (second compound 0.316 µM, first compound 0.00949 µM) was 107% and the viability, T/C (second compound 0.316 µM, first compound 0.03 µM) was 83.7%. For the same compound, the viability, T/C (second compound 0.316 µM, first compound 0.0949 µM) was 7.6%, the viability, T/C (second compound 0.316 µM, first compound 0.3 µM) was 0.59% and the viability, T/C (second compound 1 µM, first compound 0.000949 µM) was 101%. For the same compound, the viability, T/C (second compound 1 µM, first compound 0.003 µM) was 108%, the viability, T/C (second compound 1 µM, first compound 0.00949 µM) was 110% and the viability, T/C (second compound 1 µM, first compound 0.03 µM) was 81.8%. The viability, T/C (second compound 1 µM, first compound 0.0949 µM) was 6.87% and the viability, T/C (second compound 1 µM, first compound 0.3 µM) was 0.55%.

NC1CCC(NC2CC2c2ccccc2)CC1 (stereo not given) + CNC(C)C(=O)NC1CN(S(=O)(=O)c2cccc(S(=O)(=O)N3CCC4CCC(C(=O)NC(c5ccccc5)c5ccccc5)N4C(=O)C(NC(=O)C(C)NC)C3)c2)CCC2CCC(C(=O)NC(c3ccccc3)c3ccccc3)N2C1=O was tested, and the IC50 (second compound 0.01 µM) was > 100 nM, the IC50 (second compound 0.0316 µM) was > 100 nM and the IC50 (second compound 0.1 µM) was > 100 nM. The IC50 (second compound 0.316 µM) was > 100 nM, the IC50 (second compound 1 µM) was > 100 nM and the viability, T/C (second compound 0.01 µM, first compound 0.000316 µM) was 114%. The viability, T/C (second compound 0.01 µM, first compound 0.001 µM) was 116%, the viability, T/C [1] was 111% and the viability, T/C [2] was 105%. For the same compound, the viability, T/C [3] was 111%, the viability, T/C [4] was 113% and the viability, T/C (second compound 0.0316 µM, first compound 0.000316 µM) was 107%. For the same compound, the viability, T/C (second compound 0.0316 µM, first compound 0.001 µM) was 112%, the viability, T/C [7] was 107% and the viability, T/C [8] was 113%. The viability, T/C [9] was 110%, the viability, T/C [10] was 110% and the viability, T/C (second compound 0.1 µM, first compound 0.000316 µM) was 107%. It also gave a viability, T/C (second compound 0.1 µM, first compound 0.001 µM) of 91%, a viability, T/C [13] of 109% and a viability, T/C [14] of 106%. It also gave a viability, T/C [15] of 104%, a viability, T/C [16] of 111% and a viability, T/C (second compound 0.316 µM, first compound 0.000316 µM) of 108%. It also gave a viability, T/C (second compound 0.316 µM, first compound 0.001 µM) of 110%, a viability, T/C [19] of 112% and a viability, T/C [20] of 105%. It also gave a viability, T/C [21] of 108%, a viability, T/C [22] of 110% and a viability, T/C (second compound 1 µM, first compound 0.000316 µM) of 111%. It also gave a viability, T/C (second compound 1 µM, first compound 0.001 µM) of 104%, a viability, T/C [25] of 110% and a viability, T/C [26] of 98.6%. For the same compound, the viability, T/C [27] was 105% and the viability, T/C [28] was 109%.

From PubChem BioAssay AID1963447 (Molecular Pharmacology Branch, DTP, NCI, 2024)
